According to patent publication US20120003270A1, “6-SUBSTITUTED ISOFLAVONOID COMPOUNDS AND USES THEREOF” (priority 2008, published 2012):

What was measured:
RAW 264.7 = experiment: Toxicity in RAW 264.7; assay type: cell-based, mouse
THP-1 cells = experiment: Cytotoxicity in the THP-1 NFκB assay; assay type: cell-based, human; conditions: at active concentrations
[1] = tested on: adjuvant-induced arthritis; experiment: Rat adjuvant-induced arthritis model; assay type: in vivo
Experimental: Male Dark Agouti (DA) strain (DA.CD45.1) rats were fed with either compound (1)-treated feed or placebo-treated feed for seven days prior to the injection of Complete Freund's adjuvant (0.1 ml) into the base of the tail. The treated feeds were continued throughout the experiment. Arthritis, which became evident at Day 8 was subjectively scored each day by an operator blinded to the identity of treatments and using a scoring system as follows: • 0 (no evidence of arthritis); • 1 (1 or 2 red, swollen joints but no other swelling); • 2 (carpus or tarsus swollen or more than 2 small joints swollen); • 3 (some red swollen joints and carpus or tarsus swollen, but not global swelling); • 4 (severe global swelling of the entire paw). Therefore, the disease score for individual rats ranged between 0 and 16. Rats (n=8 per group) were killed on Day 12. Data were analysed using a two way ANOVA (Prism 4 for Windows, GraphPad Software Inc).

| Structure (SMILES) | melting point | Effect on the viability of RAW 264.7 cells (RAW 264.7) | IC50 (RAW 264.7; Mus musculus, RAW264.7) [µM] | Cytotoxicity (THP-1 cells) | Joint score (mean ± SD) ([1]; Day 7, treated feed, score 0-16) | Joint score (mean ± SD) ([1]; Day 8, placebo 0.38 ± 0.52) | Joint score (mean ± SD) ([1]; Day 9, placebo 4.75 ± 1.28) | Joint score (mean ± SD) ([1]; Day 10, placebo 7.75 ± 1.39) | Joint score (mean ± SD) ([1]; Day 11, placebo 11.75 ± 1.04) | Joint score (mean ± SD) ([1]; Day 12, placebo 14.13 ± 1.46) | Arthritis score compared with placebo feed (in words) ([1]; two way ANOVA) |
| --- | --- | --- | --- | --- | --- | --- | --- | --- | --- | --- | --- |
| O=C(O)C1CCCN1Cc1cc2c(cc1O)OCC(c1ccc(O)cc1)=C2 (centres unmarked) [Compound (3)] | 240 °C (dec.) |  |  |  |  |  |  |  |  |  |  |
| CN(C)Cc1cc2c(cc1O)OCC(c1ccc(O)cc1)=C2 [Compound (1)] |  | little effect on the viability | 53.9 ± 1.2 | absence of cytotoxicity | 0 | 0.5 ± 0.53 | 3.25 ± 1.58 | 6.25 ± 1.49 | 9.25 ± 1.28 | 12.75 ± 2.92 | statistically significant (p=0.008) reduction in arthritis score |
